Activity calls are given as the source filed them. The rule behind the calls is not given here.
Columns and labels:
Hepatitis B virus [1] = experiment: Antiviral activity against HBV stably transfected in human HepG2.2.15 cells assessed as reduction of HBV DNA replication incubated for 5 days by q-PCR analysis; format: functional, organism-based; settings: HepG2 2.2.15, 120 h
[2] = Cytotoxicity against human HepDE19 cells assessed as reduction in cell viability incubated for 5 days by CCK-8 assay; format: functional; settings: HepDE19, 120 h, time 5 day
[3] = AUC (0-infinity) in rat plasma at 3 mg/kg,po; format: ADME, organism-based; design: dose 3 mg/kg, route po; settings: for AUC: in vivo
[4] = Oral bioavailability in rat plasma at 3 mg/kg; format: ADME, organism-based; settings: for F: in vivo, po, 3 mg/kg
[5] = Clearance in human hepatocyte at 2 uM measured upto 120 mins by LC-MS/MS analysis; format: ADME, cell-based; settings: hepatocytes
[6] = Clearance in rat hepatocyte at 2 uM measured upto 120 mins by LC-MS/MS analysis; format: ADME, cell-based; settings: hepatocytes
[7] = Octanol-water partition coefficient, logD of the compound at pH 7.4; format: physicochemical
[8] = Half life in mouse plasma at 1 mg/kg,iv; format: ADME, organism-based
[9] = Volume of distribution at steady state in mouse plasma at 1 mg/kg,iv; format: ADME, organism-based; settings: read-out: Vdss
[10] = Clearance in mouse plasma at 1 mg/kg,iv; format: ADME, organism-based
[11] = AUC (0-infinity) in mouse plasma at 1 mg/kg,iv; format: ADME, organism-based; design: dose 1 mg/kg, route iv; settings: in vivo
[12] = AUC (0-infinity) in mouse plasma at 3 mg/kg,po; format: ADME, organism-based; design: dose 3 mg/kg, route po; settings: in vivo
[13] = Oral bioavailability in mouse plasma at 3 mg/kg; format: ADME, organism-based; settings: in vivo
Hepatitis B virus [14] = experiment: Antiviral activity against AAV-Hepatitis B virus infected in C57BL/6 mouse assessed as reduction of serum HBV DNA level at 0.03 mg/kg,po qd for 8 weeks by quantitative real-time PCR analysis; format: functional, organism-based
Hepatitis B virus [15] = experiment: Antiviral activity against AAV-Hepatitis B virus infected in C57BL/6 mouse assessed as reduction of serum HBsAg level at 0.03 mg/kg,po qd for 8 weeks by chemiluminescence immunoassay; format: functional, organism-based
Hepatitis B virus [16] = experiment: Antiviral activity against AAV-Hepatitis B virus infected in C57BL/6 mouse assessed as reduction of serum HBeAg level at 0.03 mg/kg,po qd for 8 weeks by chemiluminescence immunoassay; format: functional, organism-based
[17] = Induction of CYP3A4 mRNA expression level in human hepatocytes at 10 uM incubated for 24 hrs by q-PCR analysis; format: ADME, cell-based, Hepatocyte
[18] = Clearance in human liver microsomes at 1 uM measured upto 30 mins in presence of NADPH by LC-MS/MS analysis; format: ADME, Microsome
[19] = molecular target: Voltage-gated inwardly rectifying potassium channel KCNH2 (Homo sapiens, UniProt Q12809); experiment: (§1) Inhibition of hERG stably expressed in CHO cells by whole-cell voltage-clamp assay; format: toxicity, cell-based
hERG = hERG (Homo sapiens, UniProt Q12809); experiment: as §1; format: toxicity, cell-based; settings: human, CHO cells stably expressing hERG
[20] = Half life in rat plasma at 1 mg/kg,iv; format: ADME, organism-based
[21] = Volume of distribution at steady state in rat plasma at 1 mg/kg,iv; format: ADME, organism-based; settings: read-out: Vdss
[22] = Clearance in rat plasma at 1 mg/kg,iv; format: ADME, organism-based
[23] = AUC (0-infinity) in rat plasma at 1 mg/kg,iv; format: ADME, organism-based; design: dose 1 mg/kg, route iv
[24] = AUC (0-infinity) in mouse liver at 3 mg/kg,po; format: ADME, organism-based; design: dose 3 mg/kg, route po
[25] = Ratio of AUC (0 to infinity) in liver to plasma of mouse at 3 mg/kg,po; format: ADME, organism-based; settings: read-out: Ratio AUC
Hepatitis B virus [26] = experiment: Antiviral activity against AAV-Hepatitis B virus infected in C57BL/6 mouse assessed as reduction of serum HBV DNA level at 6 to 20 mg/kg,po qd for 8 weeks by quantitative real-time PCR analysis; format: functional, organism-based; settings: dose 6-20 mg/kg
Hepatitis B virus [27] = experiment: Antiviral activity against AAV-Hepatitis B virus infected in C57BL/6 mouse assessed as reduction of serum HBsAg level at 6 to 20 mg/kg,po qd for 8 weeks by chemiluminescence immunoassay; format: functional, organism-based; settings: dose 6-20 mg/kg
Hepatitis B virus [28] = experiment: Antiviral activity against AAV-Hepatitis B virus infected in C57BL/6 mouse assessed as reduction of serum HBeAg level at 6 to 20 mg/kg,po qd for 8 weeks by chemiluminescence immunoassay; format: functional, organism-based; settings: dose 6-20 mg/kg

hERG, sequence (Q12809 whole entry): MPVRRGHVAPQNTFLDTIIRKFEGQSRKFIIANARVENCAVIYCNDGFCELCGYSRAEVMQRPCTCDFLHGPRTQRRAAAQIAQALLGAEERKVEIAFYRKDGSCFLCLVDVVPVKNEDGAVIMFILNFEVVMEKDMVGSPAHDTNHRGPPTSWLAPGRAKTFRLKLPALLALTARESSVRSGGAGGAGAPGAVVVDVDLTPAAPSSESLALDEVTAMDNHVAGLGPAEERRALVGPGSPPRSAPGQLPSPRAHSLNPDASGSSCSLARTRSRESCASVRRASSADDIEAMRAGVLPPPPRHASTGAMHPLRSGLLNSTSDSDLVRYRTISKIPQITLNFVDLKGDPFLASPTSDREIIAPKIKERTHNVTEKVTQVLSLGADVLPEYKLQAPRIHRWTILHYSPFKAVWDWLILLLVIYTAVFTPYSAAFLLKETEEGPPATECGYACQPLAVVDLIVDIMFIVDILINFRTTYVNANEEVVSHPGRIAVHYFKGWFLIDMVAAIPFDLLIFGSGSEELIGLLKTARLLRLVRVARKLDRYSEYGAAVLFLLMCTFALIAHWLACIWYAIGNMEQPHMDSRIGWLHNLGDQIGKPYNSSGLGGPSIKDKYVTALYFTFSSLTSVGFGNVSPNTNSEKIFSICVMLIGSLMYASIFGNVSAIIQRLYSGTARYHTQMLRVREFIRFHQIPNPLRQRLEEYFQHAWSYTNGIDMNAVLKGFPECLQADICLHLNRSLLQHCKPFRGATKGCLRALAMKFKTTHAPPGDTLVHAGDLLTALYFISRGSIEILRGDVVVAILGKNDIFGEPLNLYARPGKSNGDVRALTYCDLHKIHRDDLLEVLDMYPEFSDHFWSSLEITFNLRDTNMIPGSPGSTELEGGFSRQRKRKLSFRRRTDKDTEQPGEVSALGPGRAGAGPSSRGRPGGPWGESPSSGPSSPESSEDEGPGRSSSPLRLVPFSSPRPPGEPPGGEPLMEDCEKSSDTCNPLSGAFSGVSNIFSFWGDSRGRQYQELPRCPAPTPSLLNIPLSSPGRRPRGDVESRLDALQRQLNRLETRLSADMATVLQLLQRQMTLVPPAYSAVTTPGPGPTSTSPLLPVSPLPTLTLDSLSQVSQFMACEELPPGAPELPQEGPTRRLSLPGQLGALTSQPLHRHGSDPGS
Voltage-gated inwardly rectifying potassium channel KCNH2, sequence (Q12809 whole entry): as above

EC50 (Hepatitis B virus [1]) [µM]	AUC [3] [µg·h/mL]	F [4] [%]	CLhep predicted at 2 µM [5] [L/h/kg]	CLhep predicted at 2 µM [6] [L/h/kg]	logD [7]	half-life [8] [min]	Vd [9] [L/kg]	clearance [10] [L/h/kg]	AUC [11] [µg·h/mL]	AUC [12] [µg·h/mL]	F [13] [%]	Activity [17] [%]	CLhep predicted at 1 µM [18] [L/h/kg]	Structure (SMILES)	CC50 [2] [µM]	IC50 [19] [µM]	IC20 (hERG) [µM]	further results
0.006	0.043	14	0.144	0.96	1.51									COC(=O)C1=C(CN2CCN3C(=O)N(CC(C)(C)C(=O)O)C[C@@H]3C2)NC(c2nccs2)=N[C@H]1c1ccc(F)c(F)c1C	94			
0.009	0.07	15.6	0.036	1.32	1.67	54	2.2	3.48	0.323	0.038	12			CCOC(=O)C1=C(CN2CCN3C(=O)N(CC(C)(C)C(=O)O)C[C@@H]3C2)NC(c2nccs2)=N[C@H]1c1ccc(F)cc1Cl	77			
														C=C1[C@H](CO)[C@@H](O)C[C@@H]1n1cnc2c(=O)[nH]c(N)nc21				Activity (Hepatitis B virus [14]): Active; Activity (Hepatitis B virus [15]): inactive; Activity (Hepatitis B virus [16]): inactive
0.003			0.42	1.02	1.69	37.2	1.3	2.1	0.471	0.154	33	1	0.024	CCOC(=O)C1=C(CN2CCN3C(=O)N(CC(C)(C)C(=O)O)C[C@@H]3C2)NC(c2nccs2)=N[C@H]1c1cccc(F)c1Cl	> 100	> 20	> 10	half-life [20]: 108 min; Vd [21]: 4.8 L/kg; clearance [22]: 3.9 L/h/kg; AUC(0-inf) ([23]; plasma): 0.257 µg·h/mL; AUC(0-inf) ([3]; plasma): 0.026 µg·h/mL; bioavailability ([4]; plasma): 10%; AUC(0-inf) [24]: 3.76 µg·h/mL; Kp [25]: 24
0.003	0.043	7.4			2									CCOC(=O)C1=C(CN2CCN3C(=O)N(CC(C)(C)C(=O)O)C[C@@H]3C2)NC(c2nccs2)=N[C@H]1c1ccc(F)c(F)c1C	> 100			
0.006	0.026	7.1	0.552	0.84	1.18							0.6	0.12	COC(=O)C1=C(CN2CCN3C(=O)N(CC(C)(C)C(=O)O)C[C@@H]3C2)NC(c2nccs2)=N[C@H]1c1ccc(F)cc1Cl	> 100	> 20	> 10	
0.001	0.0027	1.4				30	5.2	14.9	0.065	0.0004	0.7	4	0.3	CCOC(=O)C1=C(CN2C[C@H]3CN(C(C)(C)C)C(=O)N3C[C@@H]2C(=O)O)NC(c2nccs2)=N[C@H]1c1ccc(F)cc1Cl	> 100	10	2.2	half-life [20]: 90 min; Vd [21]: 5.4 L/kg; clearance [22]: 5.22 L/h/kg; AUC ([23]; in vivo): 0.188 µg·h/mL; AUC(0-inf) [24]: 0.279 µg·h/mL; Kp [25]: 607

Structure (SMILES)	EC50 (Hepatitis B virus [1]) [µM]	AUC [3] [µg·h/mL]	F [4] [%]	CLhep predicted at 2 µM [5] [L/h/kg]	CLhep predicted at 2 µM [6] [L/h/kg]	logD [7]	half-life [8] [min]	Vd [9] [L/kg]	clearance [10] [L/h/kg]	AUC [11] [µg·h/mL]	AUC [12] [µg·h/mL]	F [13] [%]	Activity [17] [%]	CLhep predicted at 1 µM [18] [L/h/kg]	CC50 [2] [µM]	IC50 [19] [µM]	IC20 (hERG) [µM]	further results
CCOC(=O)C1=C(CN2CCN3C(=O)N(CC(C)(C)C(=O)O)C[C@@H]3C2)N=C(c2nccs2)N[C@H]1c1cccc(F)c1C [LINVENCORVIR]	0.006														> 100			Activity (Hepatitis B virus [26]): Dose-Dependent Effect; Activity (Hepatitis B virus [27]): Dose-Dependent Effect; Activity (Hepatitis B virus [28]): Dose-Dependent Effect

Reference: ChEMBL document CHEMBL5316357, “Discovery of Linvencorvir (RG7907), a Hepatitis B Virus Core Protein Allosteric Modulator, for the Treatment of Chronic HBV Infection” (J Med Chem, 2023)
